Assay results as given in patent US9464077B2, “Nitrogen-containing aromatic heterocyclic compound” (Astellas Pharma Inc., priority 2012, dated 2016).

Assays:
[1] = test system: bladder cancer patient-derived cell line RT-112; assay: Anchorage-independent cell growth inhibition, spheroid plate; type: cell-based; conditions: Homo sapiens, RT-112, 96 h, 4 days, read-out: growth inhibition rate RT-112
[2] = test system: bladder cancer patient-derived cell line RT4; assay: as above; type: cell-based; conditions: Homo sapiens, 96 h, 4 days, read-out: growth inhibition rate RT4

## COc1cc(OC)c(F)c(COc2cnc(Nc3ccc(N4CCC(NCCO)CC4)cc3)nc2)c1F [Example 299]
[1]; 1 nM
  inhibition at 0.001 µM: 31%
[1]; 10 nM
  inhibition at 0.01 µM: 84%
[1]; 100 nM
  inhibition at 0.1 µM: 89%
[2]; 1 nM
  inhibition at 0.001 µM: 8%
[2]; 10 nM
  inhibition at 0.01 µM: 45%
[2]; 100 nM
  inhibition at 0.1 µM: 63%
